Measurements reported in patent US20230226096A1 (Orna Therapeutics, Inc., priority 2020, published 2023).
Entries after “also recorded” stand apart in the source; their conditions may differ.

Legend:
splenic immune cells = test: Cre circular RNA LNPs in Cre reporter (Ai9) mice: tdTomato+ splenic immune cells; type: in vivo; settings: 0.5 mg/kg RNA intravenously, 48 hr
Protocol: Circular RNAs encoding Cre recombinase (Cre) are encapsulated into lipid nanoparticles as previously described. Female, 6-8 week old B6.Cg-Gt(ROSA)26Sortm9(CAG-tdTomato)Hze/J (Ai9) mice were dosed with lipid nanoparticles at 0.5 mg/kg RNA intravenously. Fluorescent tdTomato protein was transcribed and translated in Ai9 mice upon Cre recombination, meaning circular RNAs have been delivered to and translated in tdTomato+ cells. After 48 hr, mice were euthanized and the spleens were harvested, processed into a single cell suspension, and stained with various fluorophore-conjugated antibodies for immunophenotyping via flow cytometry.
Ai9 mice (B6.Cg-Gt(ROSA)26Sortm9(CAG-tdTomato)Hze/J, female, 6-8 weeks, n=3 per group) were injected i.v. with 0.5 mg/kg Cre oRNA LNPs or PBS. Ai9 mice transcribe and translate the fluorescent reporter tdTomato upon Cre recombination; meaning cells which are tdTomato+ have successfully been transfected with Cre oRNA.

primary human T cells = test: FLuc oRNA LNP transfection of primary human activated T cells with or without ApoE3; type: cell-based; settings: 200 ng RNA/well, 24-hour incubation, 4 independent donors
Protocol: Primary human T cells from independent donors were stimulated with aCD3/aCD28 and allowed to proliferate for 6 days in the presence of human serum and IL-2. Then, 100,000 cells were plated in a 96 well plate and LNPs containing oRNA coding for Firefly Luciferase (FLuc) were added to the cells at 200 ng RNA/well with or without Apolipoprotein E3 (ApoE3). After 24-hour incubation, luminescence was quantified using the Bright-Glo Luciferase Assay System (Promega) according to manufacturer's instructions and background luminescence from cells not treated with LNPs was subtracted. […] (See Example 70 for LNP formulation procedure, e.g., for 10a-27 (5.7A), 10a-26 (5.7A), 10a-27 (4.5D), and 10a-26 (4.5D) LNPs.)

[1] = In vivo analysis: FLuc oRNA LNPs, whole body and ex vivo IVIS flux in mice; parameters: species or system CD-1 or c57BL/6J mice; settings: 0.5 mg/kg RNA intravenously
Protocol: Female CD-1 or female c57BL/6J mice ranging from 22-25 g were dosed at 0.5 mg/kg RNA intravenously. Six hours after injection, mice were injected intraperitoneally with 200 μL of D-luciferin at 15 mg/mL concentration. 5 minutes after injection, mice were anesthetized using isoflurane, and placed inside the IVIS Spectrum In Vivo Imaging System (Perkin Elmer) with dorsal side up. Post 10 minutes injection, mice were scanned for luminescence. Mice were euthanized and organs were extracted within 25 minutes of luciferin injection to scan for luminescence in liver, spleen, kidneys, lungs, and heart. Images (FIGS. 33A-B, 34A-B, 35A-B) were analyzed using Living Images (Perkin Elmer) software. Regions of interest were drawn to obtain flux and average radiance and analyzed for biodistribution of protein expression (FIG. 32A-B).

1C1C7 cells = test: GLuc luminescence and functional stability by IRES in 1C1C7 cells; settings: 100 ng circularization reaction per 20,000 cells
HEK293 cells = test: GLuc luminescence by IRES in HEK293 cells; settings: 100 ng circularization reaction per 20,000 cells

In the case of CCCCCCCCC(CCCCCC)C(=O)OCCCCCCN(CCCCCCOC(=O)C(CCCCCC)CCCCCCCC)CCCn1ccnc1C (stereo not shown) [Lipid 27 from Table 10a, ((3-(2-methyl-1H-imidazol-1-yl)propyl)azanediyl)bis(hexane-6,1-diyl) bis(2-hexyldecanoate)], the “proportion of splenic immune cells expressing tdTomato (transfection)” value (“proportion” for short) (splenic immune cells; 0.5 mg/kg) is reported as “significantly higher myeloid and T cell transfection compared with Lipid 93-S14; also recorded: effective at delivering circular RNAs to many splenic immune cell subsets in mice”, the “proportion” value (splenic immune cells; listed as Lipid 10a-27, 0.5 mg/kg) is reported as “transfect significantly more splenic immune cells than those made with Lipid 10a-46” and the Firefly luminescence (primary human T cells) is reported as “generally produced higher luminescence than those containing Lipid 26 from Table 10a (10a-26)”.

In the case of CCCCCCCCCOC(=O)CCCCCCCN(CCO)CCCCCCCC(=O)OC(CCCCCCCC)CCCCCCCC [Lipid 15 from Table 10b], the “spleen to liver ratios” value [1] is reported as “maintaining the desired spleen to liver ratios” and the “proportion” value (splenic immune cells) is reported as “effective at delivering circular RNAs to many splenic immune cell subsets in mice”.

B1: Salivirus A SZ-1 (nucleic acid)
DNA: TCTGTCCTCACCCCATCTTCCCTTCTTTCCTGCACCGTTACGCTTACTCGCATGTGCATTGAGTGGTGCACGTGCTTGAACAAACAGCTACACTCACATGGGGGCGGGTTTTCCCGCCCTGCGGCCTCTCGCGAGGCCCACCCCTCCCCTTCCTCCCATAACTACAGTGCTTTGGTAGGTAAGCATCCTGATCCCCCGCGGAAGCTGCTCACGTGGCAACTGTGGGGACCCAGACAGGTTATCAAAGGCACCCGGTCTTTCCGCCTTCAGGAGTATCCCTGCTAGTGAATTCTAGTAGGGCTCTGCTTGGTGCCAACCTCCCCCAAATGCGCGCTGCGGGAGTGCTCTTCCCCAACTCACCCTAGTATCCTCTCATGTGTGTGCTTGGTCAGCATATCTGAGACGATGTTCCGCTGTCCCAGACCAGTCCAGTAATGGACGGGCCAGTGTGCGTAGTCGTCTTCCGGCTTGTCCGGCGCATGTTTGGTGAACCGGTGGGGTAAGGTTGGTGTGCCCAACGCCCGTACTTTGGTGATACCTCAAGACCACCCAGGAATGCCAGGGAGGTACCCCGCTTCACAGCGGGATCTGACCCTGGGCTAATTGTCTACGGTGGTTCTTCTTGCTTCCACTTCTTTCTACTGTTCATG
With B1 the “luminescence at 24 hours” value (1C1C7 cells) was “high luminescence”.

B2: Crohivirus B IRES: "Crohivirus B (CrVB) IRES", one of the selected IRES sequences, SEQ ID NOs: 348-389 (nucleic acid)
DNA: GTATAAGAGACAGGTGTTTGCCTTGTCTTCGGACTGGCATCTTGGGACCAACCCCCCTTTTCCCCAGCCATGGGTTAAATGGCAATAAAGGACGTAACAACTTTGTAACCATTAAGCTTTGTAATTTTGTAACCACTAAGCTTTGTGCACATAATGTAACCATCAAGCTTGTTAGTCCCAGCAGGAGGTTTGCATGCTTGTAGCCGAAATGGGGCTCGACCCCCCATAGTAGGATACTTGATTTTGCATTCCATTGTGGACCTGCAAACTCTACACATAGAGGCTTTGTCTTGCATCTAAACACCTGAGTACAGTGTGTACCTAGACCCTATAGTACGGGAGGACCGTTTGTTTCCTCAATAACCCTACATAATAGGCTAGGTGGGCATGCCCAATTTGCAAGATCCCAGACTGGGGGTCGGTCTGGGCAGGGTTAGATCCCTGTTAGCTACTGCCTGATAGGGTGGTGCTCAACCATGTGTAGTTTAAATTGAGCTGTTCATATACC
modifications: Crohivirus B
In the case of B2, the “luminescence at 24 hours” value (HEK293 cells) is reported as “highest luminescence”.
